Assay results: PubChem BioAssay (NCI)
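Cultured in 96-well plates, cells were exposed to test compound for 48 hours across five concentrations. GI50 marks 50% less growth. TGI: total growth inhibition.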

Experiments:
Experiment in all cases: NCI-60 cell line screen, 48 h
ACHN renal = test system: ACHN renal
SW-620 colon = test system: SW-620 colon
K-562 leukemia = test system: K-562 leukemia
MDA-MB-231 breast = test system: MDA-MB-231 breast
HS 578T breast = test system: HS 578T breast
UO-31 renal = test system: UO-31 renal
EKVX NSCLC = test system: EKVX NSCLC
HCT-15 colon = test system: HCT-15 colon
SK-MEL-28 melanoma = test system: SK-MEL-28 melanoma
RPMI-8226 leukemia = test system: RPMI-8226 leukemia
SNB-75 CNS = test system: SNB-75 CNS
NCI-H23 lung = test system: NCI-H23 lung
T-47D breast = test system: T-47D breast
TK-10 renal = test system: TK-10 renal
SF-539 CNS = test system: SF-539 CNS
HL-60(TB) leukemia = test system: HL-60(TB) leukemia
SF-268 CNS = test system: SF-268 CNS
SR leukemia = test system: SR leukemia
COLO 205 colon = test system: COLO 205 colon
MCF7 breast = test system: MCF7 breast
U251 CNS = test system: U251 CNS
DU-145 prostate = test system: DU-145 prostate
MALME-3M melanoma = test system: MALME-3M melanoma
MOLT-4 leukemia = test system: MOLT-4 leukemia
SK-MEL-2 melanoma = test system: SK-MEL-2 melanoma
CCRF-CEM leukemia = test system: CCRF-CEM leukemia
BT-549 breast = test system: BT-549 breast
OVCAR-8 ovarian = test system: OVCAR-8 ovarian
CAKI-1 renal = test system: CAKI-1 renal
SK-MEL-5 melanoma = test system: SK-MEL-5 melanoma
SNB-19 CNS = test system: SNB-19 CNS
HOP-62 NSCLC = test system: HOP-62 NSCLC
NCI/ADR-RES ovarian = test system: NCI/ADR-RES ovarian
MDA-MB-435 = test system: MDA-MB-435
HT29 colon = test system: HT29 colon
OVCAR-5 ovarian = test system: OVCAR-5 ovarian
SF-295 CNS = test system: SF-295 CNS
LOX IMVI melanoma = test system: LOX IMVI melanoma
KM12 colon = test system: KM12 colon
OVCAR-4 ovarian = test system: OVCAR-4 ovarian
SK-OV-3 ovarian = test system: SK-OV-3 ovarian
NCI-H460 lung = test system: NCI-H460 lung
NCI-H226 lung = test system: NCI-H226 lung
M14 melanoma = test system: M14 melanoma
SN12C renal = test system: SN12C renal
OVCAR-3 ovarian = test system: OVCAR-3 ovarian
PC-3 prostate = test system: PC-3 prostate
UACC-257 melanoma = test system: UACC-257 melanoma
A498 renal = test system: A498 renal
A549 NSCLC = test system: A549 NSCLC
NCI-H522 lung = test system: NCI-H522 lung
UACC-62 melanoma = test system: UACC-62 melanoma
HCT-116 colon = test system: HCT-116 colon
786-0 renal = test system: 786-0 renal
IGROV1 ovarian = test system: IGROV1 ovarian
HOP-92 NSCLC = test system: HOP-92 NSCLC
RXF 393 renal = test system: RXF 393 renal

## Cc1cc(S(=O)(=O)Nc2nnc(-c3ccccc3)c(-c3ccccc3)n2)c(SCC(N)=O)cc1Cl
ACHN renal
  GI50: > 100 µM
  TGI: > 100 µM
SW-620 colon
  GI50: 41.5 µM
  TGI: > 100 µM
K-562 leukemia
  GI50: 36.3 µM
  TGI: > 100 µM
MDA-MB-231 breast
  GI50: 36.3 µM
  TGI: > 100 µM
HS 578T breast
  GI50: 32.5 µM
  TGI: > 100 µM
UO-31 renal
  GI50: > 100 µM
  TGI: > 100 µM
EKVX NSCLC
  GI50: > 100 µM
  TGI: > 100 µM
HCT-15 colon
  GI50: > 100 µM
  TGI: > 100 µM
SK-MEL-28 melanoma
  GI50: 72.8 µM
  TGI: > 100 µM
RPMI-8226 leukemia
  GI50: 30.9 µM
  TGI: 86.6 µM
SNB-75 CNS
  GI50: > 100 µM
  TGI: > 100 µM
NCI-H23 lung
  GI50: 78.7 µM
  TGI: > 100 µM
T-47D breast
  GI50: 34.5 µM
  TGI: > 100 µM
TK-10 renal
  GI50: > 100 µM
  TGI: > 100 µM
SF-539 CNS
  GI50: 0.671 µM
  TGI: 30.1 µM
HL-60(TB) leukemia
  GI50: 53.3 µM
  TGI: > 100 µM
SF-268 CNS
  GI50: 37.6 µM
  TGI: > 100 µM
SR leukemia
  GI50: 24.1 µM
  TGI: 47.6 µM
COLO 205 colon
  GI50: > 100 µM
  TGI: > 100 µM
MCF7 breast
  GI50: 36.4 µM
  TGI: > 100 µM
U251 CNS
  GI50: 31.1 µM
  TGI: 78.4 µM
DU-145 prostate
  GI50: 55.7 µM
  TGI: > 100 µM
MALME-3M melanoma
  GI50: 30.2 µM
  TGI: > 100 µM
MOLT-4 leukemia
  GI50: 24.4 µM
  TGI: 49.2 µM
SK-MEL-2 melanoma
  GI50: 30.5 µM
  TGI: 49.2 µM
CCRF-CEM leukemia
  GI50: 29.3 µM
  TGI: 77.4 µM
BT-549 breast
  GI50: 27.4 µM
  TGI: 90.6 µM
OVCAR-8 ovarian
  GI50: 32.5 µM
  TGI: 87 µM
CAKI-1 renal
  GI50: > 100 µM
  TGI: > 100 µM
SK-MEL-5 melanoma
  GI50: 57.8 µM
  TGI: > 100 µM
SNB-19 CNS
  GI50: 35.3 µM
  TGI: > 100 µM
HOP-62 NSCLC
  GI50: 52.5 µM
  TGI: > 100 µM
NCI/ADR-RES ovarian
  GI50: > 100 µM
  TGI: > 100 µM
MDA-MB-435
  GI50: 51.5 µM
  TGI: > 100 µM
HT29 colon
  GI50: > 100 µM
  TGI: > 100 µM
OVCAR-5 ovarian
  GI50: > 100 µM
  TGI: > 100 µM
SF-295 CNS
  GI50: 28.5 µM
  TGI: 75 µM
LOX IMVI melanoma
  GI50: 34.6 µM
  TGI: 85.1 µM
KM12 colon
  GI50: 37 µM
  TGI: > 100 µM
OVCAR-4 ovarian
  GI50: 41.5 µM
  TGI: > 100 µM
SK-OV-3 ovarian
  GI50: > 100 µM
  TGI: > 100 µM
NCI-H460 lung
  GI50: 36.9 µM
  TGI: > 100 µM
NCI-H226 lung
  GI50: 59.9 µM
  TGI: > 100 µM
M14 melanoma
  GI50: 56.5 µM
  TGI: > 100 µM
SN12C renal
  GI50: 62.3 µM
  TGI: > 100 µM
OVCAR-3 ovarian
  GI50: 19.6 µM
  TGI: 42.8 µM
PC-3 prostate
  GI50: 94.8 µM
  TGI: > 100 µM
UACC-257 melanoma
  GI50: 33.1 µM
  TGI: 97.6 µM
A498 renal
  GI50: > 100 µM
  TGI: > 100 µM
A549 NSCLC
  GI50: > 100 µM
  TGI: > 100 µM
NCI-H522 lung
  GI50: 22.9 µM
  TGI: 50.9 µM
UACC-62 melanoma
  GI50: 24.6 µM
  TGI: 56.2 µM
HCT-116 colon
  GI50: 20.7 µM
  TGI: 37.8 µM
786-0 renal
  GI50: 38.6 µM
  TGI: > 100 µM
IGROV1 ovarian
  GI50: > 100 µM
  TGI: > 100 µM

## COc1cc2nc3cc([N+](=O)[O-])ccc3c(NCCCNCCO)c2cc1OC
ACHN renal
  GI50: 0.256 µM
  TGI: 0.914 µM
SW-620 colon
  GI50: 0.21 µM
  TGI: 1.03 µM
MDA-MB-231 breast
  GI50: 0.13 µM
  TGI: 0.374 µM
HS 578T breast
  GI50: 0.184 µM
  TGI: 0.612 µM
UO-31 renal
  GI50: 2.15 µM
  TGI: 14.2 µM
EKVX NSCLC
  GI50: 0.353 µM
  TGI: 4.63 µM
HCT-15 colon
  GI50: 3.59 µM
  TGI: 19.5 µM
RPMI-8226 leukemia
  GI50: 0.567 µM
  TGI: 4.34 µM
SNB-75 CNS
  GI50: 0.128 µM
  TGI: 0.26 µM
NCI-H23 lung
  GI50: 0.143 µM
  TGI: 0.616 µM
T-47D breast
  GI50: 0.205 µM
  TGI: 0.531 µM
TK-10 renal
  GI50: 0.276 µM
  TGI: 0.923 µM
SF-539 CNS
  GI50: 0.191 µM
  TGI: 0.478 µM
HL-60(TB) leukemia
  GI50: 0.463 µM
  TGI: 4.32 µM
SF-268 CNS
  GI50: 0.126 µM
  TGI: 0.478 µM
SR leukemia
  GI50: 0.238 µM
  TGI: 1.71 µM
HOP-92 NSCLC
  GI50: 0.148 µM
  TGI: 0.438 µM
COLO 205 colon
  GI50: 0.162 µM
  TGI: 0.351 µM
MCF7 breast
  GI50: 0.12 µM
  TGI: 0.626 µM
U251 CNS
  GI50: 0.149 µM
  TGI: 0.433 µM
DU-145 prostate
  GI50: 0.194 µM
  TGI: 0.645 µM
MALME-3M melanoma
  GI50: 0.189 µM
  TGI: 0.359 µM
MOLT-4 leukemia
  GI50: 0.244 µM
  TGI: 5.4 µM
SK-MEL-2 melanoma
  GI50: 0.187 µM
  TGI: 0.389 µM
CCRF-CEM leukemia
  GI50: 0.211 µM
  TGI: 1.41 µM
BT-549 breast
  GI50: 0.297 µM
  TGI: 0.962 µM
OVCAR-8 ovarian
  GI50: 0.202 µM
  TGI: 0.721 µM
CAKI-1 renal
  GI50: 2.62 µM
  TGI: 16.7 µM
SNB-19 CNS
  GI50: 0.137 µM
  TGI: 0.495 µM
HOP-62 NSCLC
  GI50: 0.146 µM
  TGI: 0.422 µM
NCI/ADR-RES ovarian
  GI50: 31.4 µM
  TGI: > 100 µM
MDA-MB-435
  GI50: 0.179 µM
  TGI: 0.336 µM
HT29 colon
  GI50: 0.212 µM
  TGI: 0.569 µM
OVCAR-5 ovarian
  GI50: 0.22 µM
  TGI: 0.899 µM
SF-295 CNS
  GI50: 0.182 µM
  TGI: 0.604 µM
LOX IMVI melanoma
  GI50: 0.243 µM
  TGI: 0.664 µM
RXF 393 renal
  GI50: 0.186 µM
  TGI: 0.473 µM
KM12 colon
  GI50: 0.285 µM
  TGI: 0.843 µM
OVCAR-4 ovarian
  GI50: 0.114 µM
  TGI: 0.385 µM
SK-OV-3 ovarian
  GI50: 0.265 µM
  TGI: 0.711 µM
NCI-H460 lung
  GI50: 0.264 µM
  TGI: 0.624 µM
NCI-H226 lung
  GI50: 0.196 µM
  TGI: 0.505 µM
M14 melanoma
  GI50: 0.205 µM
  TGI: 0.437 µM
OVCAR-3 ovarian
  GI50: 0.244 µM
  TGI: 0.622 µM
PC-3 prostate
  GI50: 0.213 µM
  TGI: 0.483 µM
UACC-257 melanoma
  GI50: 0.342 µM
  TGI: 0.951 µM
A498 renal
  GI50: 0.214 µM
  TGI: 0.527 µM
A549 NSCLC
  GI50: 0.255 µM
  TGI: 0.635 µM
NCI-H522 lung
  GI50: 0.041 µM
  TGI: 0.213 µM
HCT-116 colon
  GI50: 0.115 µM
  TGI: 0.385 µM
786-0 renal
  GI50: 0.239 µM
  TGI: 0.896 µM
IGROV1 ovarian
  GI50: 0.225 µM
  TGI: 0.672 µM
